Assay results from the supplement of paper PMC10307832.

Tests used:
GW-2580 = compound: COC1=CC=C(C=C1)COC2=C(C=C(C=C2)CC3=CN=C(N=C3N)N)OC [GW-2580]; experiment: relative viability (nuclei count vs DMSO), 5 days (fraction); higher = more cells survive
In short: (§1)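 Lung cancer cell lines in 1536-well plates were exposed by pinning to five library-drug doses (not always all listed) √10 apart, following an overnight hold at 37 °C. MetaXpress counted Hoechst-stained nuclei from 4× images taken after 5 days without medium change. Viability is the median ratio of treated-well to vehicle-well nuclei across plates. Plates required control CV below 25% and at least one doubling.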

Fedratinib = compound: Cc1cnc(Nc2ccc(OCCN3CCCC3)cc2)nc1Nc1cccc(S(=O)(=O)NC(C)(C)C)c1 [Fedratinib]; experiment: as above
In short: as §1

UMC-11
relative viability (GW-2580; 0.08 µM): 1.05
relative viability (GW-2580; 0.8 µM): 1.11
relative viability (GW-2580; 2.53 µM): 0.923
relative viability (GW-2580; 8 µM): 1.2
relative viability (Fedratinib; 0.1 µM): 0.914
relative viability (Fedratinib; 0.3162 µM): 0.894
relative viability (Fedratinib; 1 µM): 0.67
